Data set [1] relates to TNF-α-induced IL-8 secretion from THP-1 cells. The data set can be described thus: cytokine protein measurement (LEGENDPlex). Type of data set: cell-based, human. The note with it: 10 ng/mL TNF-α, 1 μM compound. The method, then:
For cytokine expression determination, 5x10^5 THP-1 cells were plated on 12 well plates the day prior to treatment with 10 ng/mL recombinant human TNF -α (aa 77-233) protein (R&D systems, 10291 -TA) and compounds at a final concentration of 0.1 % DMSO. In all cases, total […]
Cytokine protein measurements
THP-1 cells were plated and treated as for the quantitative RT -PCR, then the cell culture medium was harvested by pelleting the cells (300g, 3min) and taking the supernatant .
Cytokine protein concentrations were determined using the LEGENDPlexTM Human Inflammation Panel 1 (BioLegend) assay with 25 µL of culture medium following the manufacturer’s instructi ns. amp es were ana zed f w c t metr n an rtessa Biosciences), and data was analyzed using LEGENDPlex software (BioLegend).

The test system of data set [2] is MRC5 cells. The experiment in a line: viability assay (resazurin). Type of data set: cell-based. The note with it: three-day treatment, concentration resulting in 70 % viability. The method, then: MRC5 (2x10^3 cells/well) or THP-1 (8x10^3 cells/well) cells were plated onto 96 well plates and treated with compounds at a final DMSO concentration of 0.5 % (MRC5) or 0.1 % (THP-1).
After 3 days of treatment, resazurin (Acros Organics) was added at a final concentration of 86 μ and incu ated for 2h15 (MRC5) or 3 h (THP-1). Fluorescence (ex. 560 nm, em. 590 nm) was read using a SpectraMax M5 (Molecular devices). GI30 values were calculated as the compound concentration resulting in 70 % viability compared to DMSO treated controls using a nonlinear regression fit using GraphPad Prism with the following equation: (Y=Bottom + (100-Bottom)/(1+(IC50/X)^HillSlope)). […]
After 1.5 h, mice were injected with 10 µL of the prepared CAPTISOL […]
foodpad and also intraperitoneally (for i.p. injection, the 10 µL of CAPTISOL solution was diluted to a final volume of 100 µL using PBS). Organs were collected 5 h after TNF-α […]
LEGENDPlexTM assays (Mouse Pro-inflammatory Chemokine Panel and Mouse Inflammation Panel; Biolegend) were performed to monitor cytokine/chemokine expression. Briefly, popliteal LNs were collected and carefully disrupted in […] ice-cold phosphate buffer, minimizing cell rupture. The suspension was centrifuged at 1,500 rpm for 5 min, and the […]
In general terms: Resazurin is reduced to fluorescent resorufin, in cell work by metabolically active cells.

Data set [3] has as its system TNF-α-induced cytokine expression in THP-1 cells. The experiment in a line: cytokine mRNA expression by RT-qPCR. The format is cell-based, human. The settings on record: 1 h co-treatment of THP-1 cells with 10 ng/mL TNF-α and 1 μM compound. The method, then:
For cytokine expression determination, 5x10^5 THP-1 cells were plated on 12 well plates the day prior to treatment with 10 ng/mL recombinant human TNF -α (aa 77-233) protein (R&D systems, 10291 -TA) and compounds at a final concentration of 0.1 % DMSO. In all cases, total
(§1) RNA was extracted using the NucleoSpin® RNA kit (Machery -Nagel) and used for cDNA synthesis with the High -Capacity cDNA Reverse Transcription kit (Applied Biosystems). RT-qPCR reactions were performed using PowerSYBR™ green PCR Master Mix (Applied Biosystems) and a LightCycler® 480 (Roche). cDNA was denatured for 10 min at 95 °C followed by 40 cycles of 15 s at 95 °C and 1 min at 60 °C. Cp values were determined as the maximum of the second derivative and target gene expression was compared to that of hprt from the same sample using the 2-ΔCp method. Gene expression was then normalized to the average of the control samples from the same day, or all biological replicates. […]
A general note: In qPCR the cycle at which signal appears reflects the starting amount.

Data set [4] deals with CBP-BRD. The note with it: TR-FRET, read-out: Affinity to CBP-BRD, IC50, cited from earlier work. On the technique in general: TR-FRET usually uses a lanthanide donor and a delayed reading to cut background.
Data set [5] has as its system BRD4(1)-BRD. The note with it: cited from earlier work.
The nature of data set [6]: kinetic solubility. Type of data set: physicochemical. The settings on record: PBS buffer, aqueous buffer, kinetic from dmso stock, PBS pH 7.4, 37°C, ± st. dev. between technical replicates, read-out: Kin. Sol. The method, then: Starting from an initial concentration of 100, 50 or 20 µM, a 2-fold serial dilution of the compound (10 mM stock in DMSO) was prepared in a mixture of ACN/Buffer (PBS, pH = 7.4) 2:8, with 1% DMSO. 350 µL was transferred to a 96-Well Plate (Greiner, UV-star) then UV absorption (240-400 nm, 10 nm steps) was measured. The absorption was blank-corrected and plotted against concentration. The wavelength (λ) providing the best fitting straight line […]
was used as the calibration curve. To obtain saturated solutions of the compounds of interest, in duplicates 4.4 µL of a 10 or 5 mM stock in DMSO was added to 436 µL Buffer (PBS, pH = 7.4), to give a final concentration of 100 or 50 µM. Samples were incubated on a shaker (500 rpm) at 37°C for 90 minutes and then filtered (Millex-GV 13 mm, 0.22 µm). 304 µL of the filtrate was mixed with 76 µL of acetonitrile on a dilution plate, from which 350 µL was transferred to a UV-plate and UV-absorption was read using a SpectraMax M5 (Molecular devices). The absorbance was blank-corrected and compared to the calibration curve to […]
solubility. The wavelengths used for the calibration curve are available in Table S4.
Based on the known density of 12.5 % CAPTISOL® solution (d = 1.05755 g/mL at 25 °C), the precise weight of the resulting solution and so the required amount of water by weight was calculated. The water was added portion wise with agitation, vortexing and sonication cycles in between additions. The saturated solutions were then filtered (Millex-GV 13 mm, 0.22 µm). In duplicates, aliquots of the filtrates were taken and diluted with blank 12.5 % CAPTISOL® water solution in either a 1:14 (higher sol. compounds) or 1:7 (lower sol. compounds) ratio, 350 µL was transferred to a 96-Well Plate (Greiner, UV-star) then UV absorption (240-400 nm, 10 nm steps) was measured using a SpectraMax M5 (Molecular devices). The absorption was blank-corrected, compared to the calibration curve obtained during the solubility measurement method above and finally corrected for the dilution ratio to obtain the compound concentration in the saturated 12.5 % CAPTISOL® solution. The calculated concentrations are available in Table S4.
BROMOscan™ assays (provided by Eurofins DiscoverX, US)1,2 […]
coli host derived from the BL21 strain. E. coli were grown to log-phase and infected with T7 phage from a frozen stock (multiplicity of infection = 0.4) and incubated with shaking at 32°C until lysis (90-150 minutes). The lysates were centrifuged (5,000 x g) and filtered (0.2µm) to remove cell debris. Streptavidin-coated magnetic beads were treated with biotinylated small molecule or acetylated peptide ligands for 30 minutes at room temperature to generate affinity resins for bromodomain assays. The liganded beads were blocked with excess biotin and washed with blocking buffer (SeaBlock (Pierce), 1 % BSA, 0.05 % Tween 20, 1 mM DTT) to remove unbound ligand and to reduce non specific phage binding. Binding reactions were assembled by combining bromodomains, liganded affinity beads, and test compounds (see […]
Sodium azide, 7.4 mM DTT). All reactions were performed in polypropylene 384-well plates in a final volume of 0.02 mL. The assay plates were incubated at room temperature with […]
20). The beads were then resuspended in elution buffer (1x PBS, 0.05% Tween 20, 2 µM non-

Data set [7] has as its system myc expression in LP1 cells. The data set can be described thus: myc mRNA expression by RT-qPCR. The format is cell-based. The note with it: 4 h treatment of LP1 cells with 1 μM compound. The method, then: For myc expression, 1x10^6 LP1 cells were plated the day prior to a 4 h treatment with compounds at a final DMSO concentration of 0.1 %. […]
In all cases, total
as §1

The target of data set [8] is T1, CBP-BRD (ePL-CBP-BRD in HEK293T cells) (Homo sapiens, UniProt Q92793).
T1 construct: (residues 1083-1197) was cloned into the pICP-ePL-C vector; expressed in transfected cells; host or cells: HEK293T, transient transfection (vector pICP-ePL-C, DiscoverX 94-4007S)
T1 sequence (Q92793 1083-1197): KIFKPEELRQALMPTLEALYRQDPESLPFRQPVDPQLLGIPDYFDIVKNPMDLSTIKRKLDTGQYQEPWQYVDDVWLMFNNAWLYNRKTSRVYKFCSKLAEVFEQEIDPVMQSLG
The data set can be described thus: CBP-BRD InCELL Pulse cellular target engagement. The format is cell-based. The note with it: 1 h compound treatment of HEK293T cells transiently transfected with ePL-CBP-BRD. The method, then:
The CBP-BRD (residues 1083-1197) was cloned into the pICP-ePL-C vector (DiscoverX, 94-4007S) between the EcoRI and XhoI restriction sites using the hexahistidine-CREBBP plasmid as a template. 5x10^5 HEK293T cells were plated on a 6 well plate the day prior to transfection with 1.5 μg ePL-CBP-BRD plasmid using 5 μl FugeneHD (Promega E2311) in 500 μl optiMEM® (Gibco, 31985062) . Proteins were allowed to express for 20 h before cells were trypsinized, washed and resuspended in low -serum medium (DMEM with 5 % FBS). Compounds were serially diluted in DMSO at 100x, pre-diluted to 5x in complete medium (DMEM with 10 % FBS and 1 % P/S), then added to a suspension of 5x10^3 cells, giving a final DMSO concentration of 1 %. Treated cells were incubated for 1 h at 37 °C in an incubator, followed by a heat shock for 3 min at 45 °C and recovery for 3 min at 22 °C using a thermocycler with a ramp rate of 1 °C/s (SimpliAmp, Thermo Fisher). Stab ilized ePL tag was quantified using the InCELL detecti n Kit isc verX as per the manufacturer’s pr t c usin the -10 working detection solution and a 2 h incubation before reading luminescence with a SpectraMax M5 plate reader (Molecular devices). […]

Structures are written as SMILES. In brackets after ≈: the same amount, converted by molar mass. Like-named read-outs stand apart in the source and are kept apart here.

With `CNC(=O)Nc1ccc2c(c1)CC[C@@]21OC(=O)N(CC(=O)N(Cc2ccc(F)cc2)[C@@H](C)C(F)(F)F)C1=O` [A485], the “TNF-α-induced IL-8 protein secretion” value in data set [1] was “significantly reducing its TNF-α-induced secretion”. Further, the GI30 in data set [2] came out at 1.2 µM. Besides, the “TNF-α-induced expression of il1β, il8, mcp-1 and tnf-α (mRNA)” value in data set [3] is “significantly reduced the TNF-α-induced expression of all four tested genes”.
By IC50 is commonly meant the point on the concentration scale where inhibition reaches its midpoint. With `C[C@@H]1CC(=O)Nc2cccc(-c3ccc4c(c3)c(-c3cnn(C)c3)nn4C)c2N1` [CPI-637], the 50% inhibitory concentration (IC50) in data set [4] (ref Taylor et al., 2016) was 0.03 µM. Moreover, in data set [5] (ref Taylor et al., 2016), the “Sel. over BRD4(1)-BRD” value is 367 fold.
Take `Cc1cc2c(NC(=O)c3cc(NC(=O)c4ccco4)cc(-c4nn(C)cc4Cl)c3)cccc2nn1` [Compound 3]: the solubility kinetic at 90 min in data set [6] turned out to be 9.5 ± 0.4 µM (≈ 4.63 µg/mL).
Take `Cc1cc2c(NC(=O)c3cc(NC(=O)c4ccco4)cc(-c4c(C)n[nH]c4C)c3)cccc2nn1` [Compound 4]: the solubility kinetic at 90 min in data set [6] is 6 ± 1 µM (≈ 2.8 µg/mL).
`Cc1cc2c(NC(=O)c3cc(NC(=O)[C@@H]4CCCO4)cc(-c4ccn(C)n4)c3)cccc2nn1` [Compound 6]: the “myc mRNA expression” value in data set [7] was “significantly decreased the expression level of myc”. The solubility kinetic at 90 min in data set [6] was found to be 71 ± 0.7 µM (≈ 32.4 µg/mL). In addition, the “cellular binding to CBP-BRD (InCELL Pulse)” value in data set [8] is recorded as “able to engage the target very similarly”.
Regarding `Cc1cc2c(NC(=O)c3cc(NC(=O)C4COC4)cc(-c4ccn(C)n4)c3)cccc2nn1` [Compound 7], the solubility kinetic at 90 min in data set [6] is 82.6 ± 0.7 µM (≈ 36.5 µg/mL).
Take `Cc1cc2c(NC(=O)c3cc(NC(=O)c4ccc(CN5CCN(C)CC5)o4)cc(-c4ccn(C)n4)c3)cccc2nn1` [Compound 8]: the solubility kinetic at 90 min in data set [6] was found to be 69.9 ± 2.3 µM (≈ 39.5 µg/mL).
Regarding `CNC(=O)N1CCc2c(c(N3CCCc4cc(-c5cnn(C)c5)c(C(F)F)cc43)nn2C2CCOCC2)C1` [GNE-781], in data set [4] (ref Romero et al., 2017), the IC50 is 0.0009 µM. The “Sel. over BRD4(1)-BRD” value in data set [5] (ref Romero et al., 2017) is reported as 5425 fold.
Regarding `COc1ccc(CCc2nc3cc(-c4c(C)noc4C)ccc3n2C[C@H](C)N2CCOCC2)cc1Cl` [SGC-CBP30], the “Sel. over BRD4(1)-BRD” value in data set [5] (ref Hay et al., 2014) is on record as 40 fold.
As for `COc1ccc(CCc2nc3cc(-c4c(C)noc4C)ccn3c2NC2CCCCC2)cc1Cl` [UMB298], the “Sel. over BRD4(1)-BRD” value in data set [5] (ref Muthengi et al., 2021) is 72 fold.

(Values after paper PMC12188386, “Selective CBP/EP300 Bromodomain Inhibitors: Novel Epigenetic Tools to Counter TNF-α-Driven Inflammation” (JACS Au, 2025).)
